Data published in patent publication US5672609A, “Pyridine compounds, intermediates compositions and methods of use” (Eli Lilly and Company, priority 1996, dated 1997).

Experiments:
Format in all cases: in vivo, female Sprague Dawley rats
uterus = assay: Uterine weight in ovariectomized rats, 4-day oral dosing (Table 1); details: Rattus norvegicus, po, 96 h, OVX rats, daily for 4 days, read-out: Uterine Wt. (% inc. vs. OVX); for change in vivo at 1 mg/kg: 1 mg/kg oral; for change in vivo at 10 mg/kg: 10 mg/kg oral; for change in vivo at 25 mg/kg: 25 mg/kg oral; for change in vivo at 0.1 mg/kg: 0.1 mg/kg oral
Method: In the examples illustrating the methods, a post-menopausal model was used in which effects of different treatments upon circulating lipids were determined.
(§1) Seventy-five day old female Sprague Dawley rats (weight range of 200 to 225 g) were obtained from Charles River Laboratories (Portage, Mich.). The animals were either bilaterally ovariectomized (OVX) or exposed to a sham surgical procedure at Charles River Laboratories, and then shipped after one week. Upon arrival, they were housed in metal hanging cages in groups of 3 or 4 per cage and had ad libitum access to food (calcium content approximately 0.5%) and water for one week. Room temperature was maintained at 22.2° ±1.7° C. with a minimum relative humidity of 40%. The photoperiod in the room was 12 hours light and 12 hours dark.
(§2) Dosing Regimen Tissue Collection. After a one week acclimation period (therefore, two weeks post-OVX) daily dosing with test compound was initiated. 17α-ethynyl estradiol or the test compound were given orally, unless otherwise stated, as a suspension in 1% carboxymethylcellulose or dissolved in 20% cyclodextrin. Animals were dosed daily for 4 days. Following the dosing regimen, animals were weighed and anesthetized with a ketamine: Xylazine (2:1, V:V) mixture and a blood sample was collected by cardiac puncture. The animals were then sacrificed by asphyxiation with CO2, the uterus was removed through a midline incision, and a wet uterine weight was determined.
(§3) Data presented in Table 1 below show comparative results among ovariectomized rats, rats treated with 17α-ethynyl estradiol (EE2; an orally available form of estrogen), and rats treated with certain compounds of the present invention. […] This uterine response to estrogen is well recognized in the art.
(§4) The data presented in Table 1 below reflects the response of 5 to 6 rats per treatment.

[1] = tested on: Uterine Eosinophil Peroxidase (EPO); assay: Uterine Eosinophil Peroxidase (EPO) Assay (Table 1); design: key to Uterine EPO (V. max): Vmax of absorbance increase at 450 nm, monitored over 1 min; details: OVX rats, daily for 4 days
Text: as §1, §2
Uterine Eosinomhil Peroxidase (EPO) Assay. Uteri were kept at 4° C. until time of enzymatic analysis. The uteri were then homogenized in 50 volumes of 50 mM Tris buffer (pH-8.0) containing 0.005% Triton X-100. Upon addition of 0.01% hydrogen peroxide and 10 mM O-phenylenediamine (final concentrations) in Tris buffer, increase in absorbance was monitored for one minute at 450 nm. The presence of eosinophils in the uterus is an indication of estrogenic activity of a compound. The maximal velocity of a 15 second interval was determined over the initial, linear portion of the reaction curve.
As is expressed in the below data, estrogenicity also was assessed by evaluating the response of eosinophil infiltration into the uterus.
as §4

Serum cholesterol = Serum cholesterol in ovariectomized rats, 4-day oral dosing (Table 1); details: Rattus norvegicus, po, 96 h, OVX rats, daily for 4 days; for inhibition in vivo at 1 mg/kg: 1 mg/kg oral; for inhibition in vivo at 1 mg/kg / inhibition in vivo at 10 mg/kg / inhibition in vivo at 25 mg/kg / inhibition in vivo at 0.1 mg/kg: read-out: Serum Cholesterol (% dec. vs. OVX); for inhibition in vivo at 10 mg/kg: 10 mg/kg oral; for inhibition in vivo at 25 mg/kg: 25 mg/kg oral; for ED50: oral, dose column in mg/kg, read-out: ED50 (effective dose to dec. serum chol. by 50%); for inhibition in vivo at 0.1 mg/kg: 0.1 mg/kg oral
Text: as §1, §2
Cholesterol Analysis. Blood samples were allowed to clot at room temperature for 2 hours, and serum was obtained following centrifugation for 10 minutes at 3000 rpm. Serum cholesterol was determined using a Boehringer Mannheim Diagnostics high performance cholesterol assay. Briefly the cholesterol was oxidized to cholest-4-en-3-one and hydrogen peroxide. The hydrogen peroxide was then reacted with phenol and 4-aminophenazone in the presence of peroxidase to produce a p-quinone imine dye, which was read spectrophotometrically at 500 nm. Cholesterol concentration was then calculated against a standard curve. The entire assay was automated using a Biomek Automated Workstation.
as §3, §4

| SMILES | change in vivo at 1 mg/kg (uterus) [%] | change in vivo at 10 mg/kg (uterus) [%] | change in vivo at 25 mg/kg (uterus) [%] | Uterine EPO (V. max) ([1]; 1 mg/kg oral) | Uterine EPO (V. max) ([1]; 10 mg/kg oral) | Uterine EPO (V. max) ([1]; 25 mg/kg oral) | inhibition in vivo at 1 mg/kg (Serum cholesterol) [%] | inhibition in vivo at 10 mg/kg (Serum cholesterol) [%] | inhibition in vivo at 25 mg/kg (Serum cholesterol) [%] | ED50 (Serum cholesterol) [mg/kg] | change in vivo at 0.1 mg/kg (uterus) [%] | Uterine EPO (V. max) ([1]; 0.1 mg/kg oral) | inhibition in vivo at 0.1 mg/kg (Serum cholesterol) [%] |
| --- | --- | --- | --- | --- | --- | --- | --- | --- | --- | --- | --- | --- | --- |
| COc1ccc(-c2ccc(C)nc2-c2ccc(OCCN(C)C)cc2)cc1 [Example 1, 2-[4-[2-(1-N,N-Dimethylamino)ethoxy]phenyl]-3-(4-methoxyphenyl)-6-methylpyridine] | 0.6 | 2.6 | 5.2 | 2.9 | 2.5 | 2.3 | 15 | 14.9 | 22.2 | > 1000 |  |  |  |
| Cc1ccc(-c2ccc(O)cc2)c(-c2ccc(OCCN3CCCCC3)cc2)n1 [Example 10, 2-[4-[2-(1-Piperidinyl)ethoxy]phenyl]-3-(4-hydroxyphenyl)-6-methylpyridine] | 3.4 | 7 | 47 | 4.4 | 3.4 | 6.8 | 8.4 | 1.7 | 17.9 | > 10 |  |  |  |
| COc1ccc(-c2ccc(-c3ccc(OC)cc3)c(-c3ccc(OCCN4CCCC4)cc3)n2)cc1 [Example 5, 2-[4-[2-(1-Pyrrolidinyl)ethoxy]phenyl]-3,6-bis(4-methoxyphenyl)pyridine] | -7.6 | 27.2 |  | 4.2 | 23.1 |  | 14 | 23.5 |  | > 10 | -6.5 | 4.5 | 2.4 |
| Cc1ccc(-c2ccc(O)cc2)c(-c2ccc(OCCN3CCOCC3)cc2)n1 [Example 11, 2-[4-[2-(4-Morpholinyl)ethoxy]phenyl]-3-(4-hydroxyphenyl)-6-methylpyridine] | -0.8 | 27 | 5 | 4.8 | 4.9 | 4.4 | 16 | 18.2 | -3.6 | > 10 |  |  |  |
| COc1ccc(-c2ccc(C)nc2-c2ccc(OCCN3CCOCC3)cc2)cc1 [Example 3, 2-[4-[2-(4-Morpholinyl)ethoxy]phenyl]-3-(4-methoxyphenyl)-6-methylpyridine] | 4.9 | -6.1 | -2.3 | 10.8 | 6 | 3.8 | 4.5 | 1.4 | -11.6 | > 10 |  |  |  |
| Oc1ccc(-c2ccc(-c3ccccc3)nc2-c2ccc(OCCN3CCCC3)cc2)cc1 [Example 13, 2-[4-[2-(1-Pyrrolidinyl)ethoxy]phenyl]-3-(4-hydroxyphenyl)-6-phenylpyridine] | 54 | 38.8 | 35.5 |  |  |  | 53.8 | 36.8 |  | < 1 | 23.8 | 4.5 | 1.8 |
| Cc1ccc(-c2ccc(O)cc2)c(-c2ccc(OCCN(C)C)cc2)n1 [Example 8, 2-[4-[2-(N,N-Dimethylamino)ethoxy]phenyl]-3-(4-hydroxyphenyl)-6-methylpyridine] | -1.5 | -1 | 41.6 | 5 | 6.7 | 58.6 | 15.7 | 1.5 | 46.4 | 26 |  |  |  |
| COc1ccc(-c2ccc(C)nc2-c2ccc(OCCN3CCCC3)cc2)cc1 [Example 2, 2-[4-[2-(1-Pyrrolidinyl)ethoxy]phenyl]-3-(4-methoxyphenyl)-6-methylpyridine] | 12.7 | -12.5 | 19.5 | 6.6 | 5.9 | 59.8 | -23.6 | -33.5 | 9.7 | > 10 |  |  |  |
| COc1ccc(-c2ccc(C)nc2-c2ccc(OCCN3CCCCC3)cc2)cc1 [Example 7, 2-[4-[2-(1-Piperidinyl)ethoxy]phenyl]-3-(4-methoxyphenyl)-6-methylpyridine] |  |  | -5.6 |  |  | 3.6 |  |  | -1.2 |  |  |  | 23.2 |
